Source: ChEMBL document CHEMBL3871307, “Discovery of Chromane Propionic Acid Analogues as Selective Agonists of GPR120 with in Vivo Activity in Rodents” (ACS Med Chem Lett, 2017)
Activity calls are given as the source filed them. The calls are words filed in the database; no cut-off is given here.

Experiments:
[1] = target: T1, Free fatty acid receptor 4 (Homo sapiens, UniProt Q5NUL3); assay: Agonist activity at human GPR120 short isoform expressed in CHOK1 cells assessed as increase in IP1 accumulation after 60 mins by HTRF assay; format: functional, cell-based, CHO-K1
T1 sequence (Q5NUL3 whole entry): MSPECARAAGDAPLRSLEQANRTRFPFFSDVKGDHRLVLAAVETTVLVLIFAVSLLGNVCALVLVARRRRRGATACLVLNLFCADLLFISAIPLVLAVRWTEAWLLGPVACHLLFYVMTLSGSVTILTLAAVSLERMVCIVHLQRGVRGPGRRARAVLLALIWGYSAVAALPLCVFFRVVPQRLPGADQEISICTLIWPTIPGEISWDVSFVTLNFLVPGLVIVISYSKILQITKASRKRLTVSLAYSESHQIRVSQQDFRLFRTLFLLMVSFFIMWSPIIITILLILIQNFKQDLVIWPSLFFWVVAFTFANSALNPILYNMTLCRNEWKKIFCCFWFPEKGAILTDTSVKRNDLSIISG

[2] = target: T1, Free fatty acid receptor 4; assay: Agonist activity at human GPR120 short isoform expressed in CHOK1 cells assessed as beta-arrestin recruitment after 90 mins by luminescence assay; format: cell-based, CHO-K1
[3] = target: T2, Free fatty acid receptor 4 (Homo sapiens) (UniProt Q5NUL3); assay: Agonist activity at human GPR120 short isoform expressed in CHOK1 cells assessed as increase in IP1 accumulation at 10 uM after 60 mins by HTRF assay; format: functional, cell-based; conditions: CHO-K1
T2 sequence (whole entry): T1 sequence (Q5NUL3 whole entry)

[4] = target: Free fatty acid receptor 1 (Homo sapiens, UniProt O14842); assay: Agonist activity at human GPR40 expressed in HEK293 cells assessed as increase in IP1 accumulation after 60 mins by HTRF assay; format: functional, cell-based
Free fatty acid receptor 1 (Homo sapiens, UniProt O14842), sequence (O14842 whole entry): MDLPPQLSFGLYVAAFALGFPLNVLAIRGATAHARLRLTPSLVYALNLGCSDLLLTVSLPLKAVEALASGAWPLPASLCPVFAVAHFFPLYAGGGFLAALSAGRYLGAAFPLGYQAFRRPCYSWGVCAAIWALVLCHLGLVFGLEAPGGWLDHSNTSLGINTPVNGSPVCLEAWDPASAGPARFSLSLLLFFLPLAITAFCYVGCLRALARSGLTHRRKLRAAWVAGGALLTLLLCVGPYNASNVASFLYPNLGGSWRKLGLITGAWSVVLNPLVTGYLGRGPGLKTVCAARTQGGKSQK

[5] = Clearance in rat plasma at 0.1 mg/kg administered as iv casette dose by LC/MS/MS analysis; format: ADME, organism-based
[6] = Terminal half life in rat plasma at 0.1 mg/kg administered as iv casette dose by LC/MS/MS analysis; format: ADME, organism-based; conditions: read-out: beta t1/2 (converted)
[7] = Volume of distribution at steady state in rat plasma at 0.1 mg/kg administered as iv casette dose by LC/MS/MS analysis; format: ADME, organism-based; conditions: read-out: Vdss
[8] = Protein binding in rat plasma at 0.1 mg/kg administered as iv casette dose by LC/MS/MS analysis; format: ADME, organism-based; conditions: read-out: PPB (converted)
[9] = Intrinsic clearance in rat plasma at 0.1 mg/kg administered as iv casette dose by LC/MS/MS analysis; format: ADME, organism-based; conditions: in vivo
[10] = tested on: Mus musculus; assay: In vivo agonist activity at GPR120 in wild type C57BL/6 transverse aortic constriction mouse assessed as glucose lowering effect at 150 mg/kg, po via gavage pretreated for 60 mins followed by dextrose challenge measured up to 120 mins post glucose challenge by OGTT; format: functional, organism-based
[11] = Plasma concentration in wild type C57BL/6 transverse aortic constriction mouse harboring GPR120 at 150 mg/kg, po measured at 3 hrs; format: ADME, organism-based; conditions: C57BL/6, mouse
[12] = Plasma concentration in GPR120 knockout C57BL/6 transverse aortic constriction mouse at 150 mg/kg, po measured at 3 hrs; format: ADME, organism-based; conditions: C57BL/6, mouse
[13] = target: T3, Free fatty acid receptor 4 (Mus musculus, UniProt Q7TMA4); assay: (§1) Agonist activity at mouse GPR120 expressed in CHOK1 cells assessed as increase in IP1 accumulation after 60 mins by HTRF assay; format: functional, cell-based, CHO-K1
T3 sequence (Q7TMA4 whole entry): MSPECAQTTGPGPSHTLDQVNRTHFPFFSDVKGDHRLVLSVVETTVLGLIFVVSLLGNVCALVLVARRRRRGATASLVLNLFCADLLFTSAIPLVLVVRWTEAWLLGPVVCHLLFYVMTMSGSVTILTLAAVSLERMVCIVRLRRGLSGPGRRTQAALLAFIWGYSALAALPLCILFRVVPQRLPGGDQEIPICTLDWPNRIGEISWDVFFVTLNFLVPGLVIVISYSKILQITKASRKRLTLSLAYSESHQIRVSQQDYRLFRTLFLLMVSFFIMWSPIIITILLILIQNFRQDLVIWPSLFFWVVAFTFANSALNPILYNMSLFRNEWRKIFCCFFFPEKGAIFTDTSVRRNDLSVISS

[14] = target: T3, Free fatty acid receptor 4; assay: Agonist activity at mouse GPR120 expressed in human U2OS cells assessed as beta-arrestin recruitment after 90 mins by luminescence assay; format: cell-based
[15] = target: Free fatty acid receptor 1 (Mus musculus, UniProt Q76JU9); assay: Agonist activity at mouse GPR40 assessed as increase in IP1 accumulation after 60 mins by HTRF assay; format: functional
Free fatty acid receptor 1 (Mus musculus, UniProt Q76JU9), sequence (Q76JU9 whole entry): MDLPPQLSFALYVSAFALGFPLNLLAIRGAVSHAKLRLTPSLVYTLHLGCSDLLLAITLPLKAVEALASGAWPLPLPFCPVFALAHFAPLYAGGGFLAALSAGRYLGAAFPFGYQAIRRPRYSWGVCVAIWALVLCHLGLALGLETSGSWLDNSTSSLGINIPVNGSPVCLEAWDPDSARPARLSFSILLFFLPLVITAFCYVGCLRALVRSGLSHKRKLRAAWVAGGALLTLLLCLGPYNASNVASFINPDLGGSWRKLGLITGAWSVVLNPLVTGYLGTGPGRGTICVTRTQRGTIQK

[16] = tested on: Mus musculus; assay: Glucose lowering effect in C57BL/6 transverse aortic constriction mouse assessed as reduction in blood glucose at 100 mg/kg, po pretreated for 60 mins as single dose via gavage followed by dextrose challenge measured up to 120 mins post glucose challenge by OGTT; format: functional, organism-based
[17] = Plasma concentration in C57BL/6 transverse aortic constriction mouse at 100 mg/kg, po via gavage measured at 3 hrs; format: ADME, organism-based; conditions: C57BL/6, mouse
[18] = target: T4, Free fatty acid receptor 4 (Mus musculus) (UniProt Q7TMA4); assay: as §1; format: functional, cell-based; conditions: CHO-K1
T4 sequence (whole entry): T3 sequence (Q7TMA4 whole entry)

[19] = tested on: Mus musculus; assay: Glucose lowering effect in C57BL/6 transverse aortic constriction mouse assessed as reduction in blood glucose at 30 mg/kg, po pretreated for 60 mins as single dose via gavage followed by dextrose challenge measured up to 120 mins post glucose challenge by OGTT; format: functional, organism-based
[20] = Plasma concentration in C57BL/6 transverse aortic constriction mouse at 30 mg/kg, po via gavage measured at 3 hrs; format: ADME, organism-based; conditions: C57BL/6, mouse

| Structure (SMILES) | EC50 [1] [nM] | EC50 [2] [nM] | Activity [3] [%] | EC50 [4] [nM] | also measured |
| --- | --- | --- | --- | --- | --- |
| O=C(O)CC[C@H]1CCc2cc(-c3cc(OC(F)(F)F)ccc3F)ccc2O1 | 170 | 17 | > 50 | 2100 | clearance [5]: 9.5 mL/min/kg; half-life [6]: 1.3 h; Vd [7]: 0.64 L/kg; fraction unbound [8]: 0.0016; CL [9]: 10500 mL/min/kg |
| COc1cc(OC2CCC2)cc(-c2ccc3c(c2)CC[C@H](CCC(=O)O)O3)c1F | 15 | 9 | > 50 | > 10000 |  |
| COc1cc(O[C@H]2C[C@H](OC)C2)nc(-c2ccc3c(c2)CC[C@H](CCC(=O)O)O3)c1F | 14 | 5 | > 50 | > 10000 | clearance [5]: 3.4 mL/min/kg; half-life [6]: 2.4 h; Vd [7]: 0.49 L/kg; fraction unbound [8]: 0.0032; CL [9]: 760 mL/min/kg; Activity [10]: Active; concentration at 3 h [11]: 33.5 µM; concentration at 3 h [12]: 27.6 µM; EC50 [13]: 5.6 nM; EC50 [14]: 4.6 nM; EC50 [15]: > 10000 nM |
| CO[C@H]1C[C@H](Oc2cc(F)c(F)c(-c3ccc4c(c3)CC[C@H](CCc3nnn[nH]3)O4)c2)C1 | 240 | 170 | 24 | > 10000 |  |
| COc1cc(OC(F)(F)F)cc(-c2ccc3c(c2)CC[C@H](CCc2nnn[nH]2)O3)c1F | 130 | 150 | 45 | > 10000 |  |
| COc1cc(OC2CCC2)cc(-c2ccc3c(c2)CC[C@H]([C@@H]2C[C@H]2C(=O)O)O3)c1F | 25 | 8 | > 50 | > 10000 |  |
| O=C(O)[C@H]1C[C@@H]1[C@H]1CCc2cc(-c3cc(OC(F)(F)F)ccc3F)ccc2O1 | 320 | 130 | > 50 | > 10000 |  |
| O=C(O)CC[C@H]1CCc2cc(-c3nc(OC4CCC4)ccc3F)ccc2O1 | 30 | 21 | > 50 | > 10000 | clearance [5]: 9.1 mL/min/kg; half-life [6]: 0.74 h; Vd [7]: 0.23 L/kg; fraction unbound [8]: 0.0023; CL [9]: 4500 mL/min/kg |
| COc1cc(OC2CC2)cc(-c2ccc3c(c2)CC[C@H](CCc2nnn[nH]2)O3)c1F | 51 | 32 | > 50 | > 10000 |  |
| COc1cc(Oc2ncc(C)s2)cc(-c2ccc3c(c2)CC[C@H](CCC(=O)O)O3)c1F | 37 | 13 | > 50 | > 10000 | clearance [5]: 1.6 mL/min/kg; half-life [6]: 1.2 h; Vd [7]: 0.15 L/kg; fraction unbound [8]: 0.0007; CL [9]: 3600 mL/min/kg |
| COc1cc(OC(F)(F)F)cc(-c2ccc3c(c2)CC[C@H](CCC(=O)O)O3)c1F | 25 | 11 | > 50 | 4400 |  |
| O=C(O)CC[C@@H]1CCc2cc(-c3cc(OC(F)(F)F)ccc3F)ccc2O1 | 180 | 42 | > 50 | > 10000 |  |
| O=C(O)[C@@H]1C[C@H]1[C@H]1CCc2cc(-c3cc(OC(F)(F)F)ccc3F)ccc2O1 | 69 | 33 | > 50 | > 10000 |  |
| O=C(O)CC[C@H]1CCc2cc(-c3cc(OC4CCC4)cc(F)c3F)ccc2O1 | 21 | 13 | > 50 | > 10000 | clearance [5]: 5.4 mL/min/kg; half-life [6]: 1.3 h; Vd [7]: 0.45 L/kg; fraction unbound [8]: 0.0007; CL [9]: 8700 mL/min/kg |
| COc1cc(O[C@H]2C[C@H](OC)C2)cc(-c2ccc3c(c2)CC[C@H]([C@@H]2C[C@H]2C(=O)O)O3)c1F | 55 | 78 | > 50 | > 10000 |  |
| COc1cc(OC2CCC2)nc(-c2ccc3c(c2)CC[C@H]([C@@H]2C[C@H]2C(=O)O)O3)c1F | 18 | 7.8 | > 50 | > 10000 |  |
| Cc1cnc(Oc2cc(Cl)c(F)c(-c3ccc4c(c3)CC[C@H](CCC(=O)O)O4)c2)s1 | 14 | 5.6 | > 50 | > 10000 | clearance [5]: 1.6 mL/min/kg; half-life [6]: 0.93 h; Vd [7]: 0.14 L/kg; fraction unbound [8]: 0.0003; CL [9]: 6200 mL/min/kg |
| Fc1ccc(OC2CCC2)cc1-c1ccc2c(c1)CC[C@H](CCc1nnn[nH]1)O2 | 220 | 84 | 44 | > 10000 | Activity [16]: Active; concentration at 3 h [17]: 40.6 µM; Activity [18]: Active |
| COc1cc(OC2CCC2)nc(-c2ccc3c(c2)CC[C@H](CCC(=O)O)O3)c1F | 15 | 6.2 | > 50 | > 10000 |  |
| COc1cc(O[C@H]2C[C@H](OC)C2)cc(-c2ccc3c(c2)CC[C@H](CCc2nnn[nH]2)O3)c1F | 53 | 43 | > 50 | > 10000 |  |
| O=C(O)CC[C@H]1CCc2cc(-c3cc(OC4CCC4)ccc3F)ccc2O1 | 28 | 10 | > 50 | 3600 |  |
| O=C(O)CC[C@H]1CCc2cc(-c3cc(OC4CCC4)cc(Cl)c3F)ccc2O1 | 40 | 8.3 | > 50 | > 10000 |  |
| Fc1ccc(OC(F)(F)F)cc1-c1ccc2c(c1)CC[C@H](CCc1nnn[nH]1)O2 | 330 | 890 | 17 | > 10000 |  |
| O=C(O)CC[C@H]1CCc2cc(-c3cc(OC(F)(F)F)cc(Cl)c3F)ccc2O1 | 72 | 17 | > 50 | 2200 |  |
| CO[C@H]1C[C@H](Oc2cc(F)c(F)c(-c3ccc4c(c3)CC[C@H]([C@@H]3C[C@H]3C(=O)O)O4)c2)C1 | 45 | 17 | > 50 | > 10000 | Activity [19]: Active; concentration at 3 h [20]: 37.4 µM |
| O=C(O)CC[C@H]1CCc2cc(-c3cc(OC4CCC4)ncc3F)ccc2O1 | 250 | 230 | > 50 | 2000 |  |
| O=C(O)CC[C@H]1CCc2cc(-c3cc(OC4CCC4)cnc3F)ccc2O1 | 79 | 140 | > 50 | > 10000 |  |
